Laboratory results reported in patent US20210198647A1, “Enhancers of Neurolysin Activity” (Texas Tech University System, priority 2018, published 2021).
Several values for one entry are separate records, joined by “and”; a condition that tells them apart may be missing. Identical values can stand only once. Like-named read-outs stand apart in the source and are kept apart here. Square brackets hold non-standard residues; d marks the D form. Peptide text beside a SMILES is read from it. * marks the point of attachment. Tyr(3-NO2) = N[CH](Cc1ccc(O)c([N+](=O)[O-])c1)C(=O)O; NHPhenethyl = c1ccc(CCN*)cc1

Experiments:
[1] = target: T1, rat recombinant neurolysin (Rattus norvegicus, UniProt P42676); test: Enzymatic assay: QFS hydrolysis by rat recombinant neurolysin; assay type: biochemical; conditions: QFS 25 μM, compared to vehicle control; for % activity at 10: 10 μM compound; for % activity at (100): 100 μM compound
T1 construct: polyhistidine (N); made in house; host or cells: Escherichia coli (pBAD/His vector)
Method: Rat recombinant neurolysin—N-terminal polyhistidine tagged recombinant rat neurolysin was produced in Escherichia coli using a plasmid construct in pBAD/His vector system (Invitrogen) kindly provided by Dr. David W. Rodgers (University of Kentucky) (32,33). Bacterial culture was carried out in Terrific Broth in 2 L Erlenmeyer flasks using an incubator shaker (1-2400, New Brunswick Scientific). Expression was induced by addition of arabinose (1 mM final concentration), the cells were pelleted 3 h after induction and stored at −80° C. freezer. Bacterial pellets were resuspended and lysed in phosphate buffer (20 mM NaH2PO4, 500 mM NaCl, 0.05% Tween-20, pH 8.0) containing 0.25 mg/ml lysozyme, 1 mM phenylmethylsulfonyl fluoride, 0.05 mg/ml DNAse and 0.02 mg/ml RNase, followed by brief sonication. After centrifugation (40,000×g, 20 min at 4° C.) the supernatant was applied to a Ni-NTA Superflow cartridge (Qiagen), followed by washing and elution of recombinant neurolysin with phosphate buffer containing 25 and 250 mM imidazole, respectively. The eluted protein was further purified by size exclusion chromatography using a TSK gel BioAssist G2SWxl column (Tosoh bioscience) in AKTA Purifier FPLC system (GE Healthcare). […] Specific activity of recombinant neurolysin was determined by an enzymatic assay described below.
All assays were initiated by addition of QFS (100 μl assay volume in 96-well plates), and each experimental sample was present in duplicate.
In all experiments, test compounds were incubated with neurolysin for 10 min at 37° C. before addition of the substrate to start the reaction. All test compounds were dissolved in DMSO at 10 to 50 mM stock concentrations.
Statistical Analyses—statistical analyses and curve fitting were conducted with GraphPad Prism 6.0 software. For each enzymatic reaction, slope of the line which represents the initial velocity (Vo) for the reaction progress curve was calculated using the liner regression model of the software (Vo=Slope=Δ fluorescent intensity of the reaction product/Δ time). EC50 values for the modulators were calculated by fitting initial velocity values for hydrolysis of QFS by neurolysin in the presence of varying concentrations of a modulator into a nonlinear regression model for the three-parameter log(stimulator) vs. response equation [Y=Bottom+(Top−Bottom)/(1+10^((Log EC50−X)))].

[2] = target: T2, Neurolysin (Nln) (Rattus norvegicus, UniProt P42676); test: Nln activation in isolated enzyme assay (A50, Amax); assay type: biochemical; conditions: for EC50: read-out: A50 (concentration required to activate Nln by 50%)
T2 construct: polyhistidine (N); made in house; host or cells: Escherichia coli (pBAD/His vector), if the rat enzyme of b61 was used

[3] = target: thimet oligopeptidase (TOP) (Homo sapiens, UniProt P52888); test: Peptidase selectivity: quenched fluorescent substrate hydrolysis by TOP; conditions: concentration-response up to 300 μM
Method: Activity of recombinant human TOP was assessed in the same way as for neurolysin, except that the assay was carried out in the presence of 0.1 mM dithiothreitol (37).

[4] = 100% = normal enzyme turnover, 95% CI in parentheses

T1 sequence (P42676 38-704): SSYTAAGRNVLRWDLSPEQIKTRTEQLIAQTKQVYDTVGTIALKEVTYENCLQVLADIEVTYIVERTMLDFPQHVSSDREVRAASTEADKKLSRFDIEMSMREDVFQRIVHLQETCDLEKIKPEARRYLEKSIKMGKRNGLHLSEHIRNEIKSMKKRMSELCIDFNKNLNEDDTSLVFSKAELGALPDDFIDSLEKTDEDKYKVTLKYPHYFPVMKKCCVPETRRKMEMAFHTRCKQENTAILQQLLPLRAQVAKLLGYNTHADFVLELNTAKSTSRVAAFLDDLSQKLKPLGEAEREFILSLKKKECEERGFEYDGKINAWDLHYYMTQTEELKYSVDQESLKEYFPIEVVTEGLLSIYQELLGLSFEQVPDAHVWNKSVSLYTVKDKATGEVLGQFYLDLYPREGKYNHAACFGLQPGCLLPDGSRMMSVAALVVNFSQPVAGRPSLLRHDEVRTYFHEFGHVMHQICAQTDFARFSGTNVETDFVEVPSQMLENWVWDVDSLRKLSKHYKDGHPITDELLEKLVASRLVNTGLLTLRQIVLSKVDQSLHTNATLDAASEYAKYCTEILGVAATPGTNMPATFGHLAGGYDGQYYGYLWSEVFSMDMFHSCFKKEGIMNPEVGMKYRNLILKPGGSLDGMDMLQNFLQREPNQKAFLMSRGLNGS
T2 sequence (P42676 38-704): as above
Chain of thimet oligopeptidase (TOP) (P52888 whole entry): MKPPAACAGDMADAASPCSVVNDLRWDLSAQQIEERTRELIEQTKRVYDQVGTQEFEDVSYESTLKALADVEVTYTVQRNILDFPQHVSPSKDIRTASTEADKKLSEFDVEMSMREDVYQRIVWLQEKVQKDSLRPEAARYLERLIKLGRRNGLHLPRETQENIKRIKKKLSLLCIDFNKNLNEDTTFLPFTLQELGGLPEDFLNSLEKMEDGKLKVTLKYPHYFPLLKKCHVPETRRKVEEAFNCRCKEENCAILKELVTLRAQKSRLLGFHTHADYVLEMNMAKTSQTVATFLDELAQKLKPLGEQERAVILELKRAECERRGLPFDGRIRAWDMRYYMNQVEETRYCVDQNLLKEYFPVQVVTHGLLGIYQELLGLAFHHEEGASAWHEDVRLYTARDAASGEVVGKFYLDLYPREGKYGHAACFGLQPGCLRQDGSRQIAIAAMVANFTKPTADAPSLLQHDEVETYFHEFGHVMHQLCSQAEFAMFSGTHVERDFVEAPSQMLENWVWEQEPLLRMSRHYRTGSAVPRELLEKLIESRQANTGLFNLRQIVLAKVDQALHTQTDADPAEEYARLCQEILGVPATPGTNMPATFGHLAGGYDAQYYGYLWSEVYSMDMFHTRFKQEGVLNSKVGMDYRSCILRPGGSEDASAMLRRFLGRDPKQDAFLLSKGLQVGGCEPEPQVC

Row | Compound | % activity at 10 [1] | % activity at (100) [1] | also measured
1 | O=C(O)CNC(=O)CNC(=O)c1ccc2ccccc2n1 [Compound 400844] | 104% | 84% | 
2 | Cl.NC(=O)C(Cc1ccc(O)c([N+](=O)[O-])c1)NC(=O)C(N)Cc1ccccc1 (stereo not shown) [Compound 343028] (H-Phe-[Tyr(3-NO2)]-NH2; configuration not given here) | 98% | 73% | 
3 | CSCCC(N)[P+](=O)O (stereo not shown) [Compound 359097] | 87% | 92% | 
4 | O=P1(NCC2CCCO2)OCC2(CO1)COP(=O)(NCC1CCCO1)OC2 (stereo not shown) [Compound 88659] | 100% | 100% | 
5 | CC1(C)CC(=O)C(CC(=O)c2ccccc2)=C(NN=C(N)N)C1 [Compound 282137] | 106% | 94% | 
6 | NCC(SSC(CN)C(=O)O)C(=O)O (stereo not shown) [Compound 302851] | 104% | 80% | 
7 | NCCCNCCSP(=O)(O)O [Compound 296961] | 106% | 127% | 
8 | Cl.NC(=O)C(Cc1ccc(O)cc1)NC(=O)C(N)Cc1c[nH]c2ccccc12 (stereo not drawn) [Compound 339919] (H-Trp-Tyr-NH2; configuration not given here) | 100% | 63% | 
9 | S=C(NCN1CCNCC1)C(=S)NCN1CCNCC1 [Compound 203396] | 102% | 106% | 
10 | CC1(C)SC(C(NC(=O)Cc2ccccc2)C(=O)O)NC1C(=O)O (stereo not shown) [Compound 163084] | 103% | 102% | 
11 | CCC1COc2nc(=O)c(C=NCCCN(C)C)c(N)n21 (stereo not shown) [Compound 608820] | 102% | 108% | 
12 | COC1OC2COC(c3ccccc3)OC2C(N=Cc2ccccc2)C1O (stereo not shown) [Compound 210826] | 101% | 105% | 
13 | NCC(=O)N1CCC[C@H]1C(=O)NCC(=O)NCC(=O)O [Compound 89624] (H-GPGG-OH) | 102% | 38% | 
14 | Cc1cn(C(C=O)OC(C=O)CO)c(=O)[nH]c1=O (stereo not shown) [Compound 266752] | 107% | 97% | 
15 | CC1CN(CCCN)C(C)CN1CCCN (stereo not shown) [Compound 14541] | 97% | 103% | 
16 | NC1=C(O)/C(=N/NS(=O)(=O)c2ccccc2)C(c2ccc3c(c2)OCO3)O1 (stereo not shown) [Compound 640354] | 79% | 76% | 
17 | CCOCCOCCN1CNc2nc(N)[nH]c(=O)c2C1 [Compound 92597] | 105% | 98% | 
18 | CC(C)CC(NC(=O)C(N)CC(=O)O)C(=O)O (stereo not drawn) [Compound 332636] (H-Asp-Leu-OH; configuration not given here) | 103% | 64% | 
19 | CNCCc1cn(C2OC(CO)C(O)C(O)C2O)cn1 (stereo not shown) [Compound 131922] | 96% | 28% | 
20 | COCN1CCC2N(COC)CCC3N(COC)CCC1N23 (stereo not shown) [Compound 82001] | 105% | 100% | 
21 | COC(=O)CCN1CCN(CCO)CC1C (stereo not shown) [Compound 659264] | 104% | 107% | 
22 | COc1ccc2c(c1)c(=O)c(C(=O)O)cn2CCCOc1ccc([N+](=O)[O-])cc1 [Compound 211002] | 104% | 100% | 
23 | CN1CCC(O)(c2ccccc2)C(CCC(=O)N2CCCC2)C1.Cl (stereo not shown) [Compound 15180] | 102% | 95% | 
24 | CC(NCCN(C)C)C1CC2CCCCN2C1 (stereo not shown) [Compound 600947] | 107% | 105% | 

Row | Compound | % activity at 10 [1] | % activity at (100) [1] | also measured
25 | CC(C)CC(NC(=O)C(C)N)C(=O)NCC(=O)O (stereo not shown) [Compound 333568] | 106% | 77% | 
26 | O=C1CSC(c2cccnc2)N1CCN1C(=O)CSC1c1cccnc1 (stereo not shown) [Compound 615399] | 108% | 108% | 
27 | N#CC(C#N)N=Nc1ccc(S(=O)(=O)N=C(N)N)cc1 [Compound 134119] | 83% | 41% | 
28 | N[C@H](Cc1c[nH]cn1)C(=O)NCc1cccc(C(F)(F)F)c1 [Compound 5m] |  |  | Amax (maximum % activation achieved) [2]: 282 (258.4 to 309.1) %
29 | N[C@@H](Cc1c[nH]cn1)C(=O)NCc1ccc(C(F)(F)F)cc1 [DF-8-2] |  |  | Amax (maximum % activation achieved) [2]: 305.2 (285.3 to 328) %
30 | N[C@@H](Cc1c[nH]cn1)C(=O)N[C@@H](Cc1ccccc1)C(=O)NCCc1ccccc1 [AB-2-5-4] (H-His-Phe-NHPhenethyl) |  |  | EC50 ([2]; 95% CI in parentheses): 5.4 µM; Amax (maximum % activation achieved) [2, 4]: 177.6 (158.7 to 198.1) %
31 | CC(C)(C)OC(=O)N[C@@H](Cc1c[nH]cn1)C(=O)NCCc1c[nH]c2ccccc12 |  |  | A50 (concentration required to activate Nln by 50%) ([2]; 95% CI in parentheses): Inactive; Amax (maximum % activation achieved) [2, 4]: Inactive
32 | N[C@@H](Cc1c[nH]cn1)C(=O)Nc1ccccc1 [Compound 6a, (S)-2-amino-3-(1H-imidazol-4-yl)-N-phenylpropanamide] |  |  | EC50 ([2]; 95% CI in parentheses): 252 µM; Amax (maximum % activation achieved) [2, 4]: 467% and 466.6%
33 | CCCCCCN(C)C12CN3CN(CN(C3)C1)C2 [Compound 281707] | 109% | 113% | 
34 | N[C@@H](Cc1c[nH]cn1)C(=O)NCc1ccccc1C(F)(F)F [DF-10-2] |  |  | Amax (maximum % activation achieved) [2]: 334 (313.7 to 357.2) %
35 | N[C@H](Cc1c[nH]cn1)C(=O)NCCc1ccc(C(F)(F)F)cc1 [Compound 4l, (R)-2-amino-3-(1H-imidazol-4-yl)-N-(4-(trifluoromethyl)phenethyl)propanamide] |  |  | Amax (maximum % activation achieved) [2]: 330.1 (313.9 to 347.7) %
36 | COc1cccc(CCNC(=O)[C@H](N)Cc2c[nH]cn2)c1 [SR15-1d] |  |  | Amax (maximum % activation achieved) [2, 4]: 255.3 (230.5 to 284.8) %
37 | CC(NCCN1CCCC1)C(O)c1ccc(O)c(O)c1.Cl (stereo not shown) [Compound 48778] | 89% | 84% | 
38 | N[C@H](Cc1c[nH]cn1)C(=O)NCCc1ccccc1 [Compound 4d, (R)-2-amino-3-(1H-imidazol-4-yl)-N-phenethylpropanamide] |  |  | Amax (maximum % activation achieved) [2, 4]: 294.6 (278.0 to 313) %
39 | Clc1cc(Cl)c(C[N+]23CN4CN(CN(C4)C2)C3)cc1Cl.[Cl-] [Compound 155877] | 82% | 4% | 
40 | N[C@@H](Cc1c[nH]cn1)C(=O)NCc1ccc(F)cc1 [Compound 5n, (S)-2-amino-N-(4-fluorobenzyl)-3-(1H-imidazol-4-yl)propanamide] |  |  | Amax (maximum % activation achieved) [2]: 293 (276.5-310.7) %
41 | N[C@@H](Cc1c[nH]cn1)C(=O)NCCCCc1ccccc1 [Compound 8a, (S)-2-amino-3-(1H-imidazol-4-yl)-N-(4-phenylbutyl)propanamide] |  |  | Amax (maximum % activation achieved) [2, 4]: 328 (309-351) %
42 | COc1ccc(CNC(=O)[C@H](N)Cc2cnc[nH]2)cc1 [AB-1-16-2] |  |  | Amax (maximum % activation achieved) [2]: 703.5 (588.9 to 915.6) %
43 | N[C@@H](Cc1ccc(O)cc1)C(=O)N[C@H](Cc1c[nH]cn1)C(=O)O [Compound 4a, H-Try-His-OH] (H-Tyr-[dH]-OH) |  |  | Nln activation (in words) [2]: complete amelioration of Nln activation; A50 (concentration required to activate Nln by 50%) ([2]; 95% CI in parentheses): Inactive; Amax (maximum % activation achieved) [2, 4]: Inactive
44 | CC(C)C(N)C(=O)NC(C(=O)NS(=O)(=O)c1ccc(N)cc1)C(C)C (stereo not shown) [Compound 340049] | 94% | 52% | 
45 | O=C(O)C1C2C=CC(O2)C1C(=O)NCCCN1CCOCC1 (stereo not shown) [Compound 47096] | 101% | 111% | 
46 | CN(CCc1cnc2nc(N)[nH]c(=O)c2n1)c1ccc(C(=O)O)cc1 [Compound 121184] | 77% | 18% | 
47 | N[C@@H](Cc1c[nH]cn1)C(=O)NCc1ccc2ccccc2c1 [Compound 10a, (S)-2-amino-3-(1H-imidazol-4-yl)-N-(naphthalen-2-ylmethyl)propanamide] |  |  | EC50 ([2]; 95% CI in parentheses): 4.4 µM; Amax (maximum % activation achieved) [2, 4]: 210.9 (191.7 to 231.9) %; effect on activity of TOP (in words) [3]: No appreciable inhibition
48 | N[C@@H](Cc1c[nH]cn1)C(=O)NCc1ccccc1 [DF-3-2B] |  |  | Amax (maximum % activation achieved) [2]: 152.2 (137.3 to 171.5) %
